Values joined by “and” are separate entries in the source; they are usually repeats but may differ in a detail not shown here. Equal entries are not always repeated. Inconclusive results and toxic doses are left out.
System: L1210 leukemia ip in BDF1 mice, survival T/C
Test: NCI In Vivo Anticancer Drug Screen. Data for tumor model L1210 Leukemia (intraperitoneal) in B6D2F1 (BDF1) mice
Conditions: endpoint: mean survival time, higher = longer survival
Outline: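 Survival endpoint. Drug-treated group vs vehicle group, expressed as T divided by C. Tumor passaged by transplantation.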

O=C1CN(CCN2CC(=O)NC(=O)C2)CC(=O)N1 was tested, and the T/C (dose: 6.25 mg/kg/injection, schedule: Q03HX008 (ip), vehicle: steriod suspending solution) was 112 % of control, the T/C (dose: 10.8 mg/kg/injection, schedule: Q01DX009 (ip), vehicle: steriod suspending solution) was 103 % of control and the T/C (dose: 12.5 mg/kg/injection, schedule: Q01DX009 (ip), vehicle: steriod suspending solution) was 154 % of control. The T/C (dose: 12.5 mg/kg/injection, schedule: Q01DX009 (oral), vehicle: steriod suspending solution) was 123 % of control, the T/C (dose: 12.5 mg/kg/injection, schedule: Q01DX009 (sc), vehicle: steriod suspending solution) was 116 % of control and the T/C (dose: 12.5 mg/kg/injection, schedule: Q03HX024 (ip), vehicle: steriod suspending solution) was 177 % of control. The T/C (dose: 12.5 mg/kg/injection, schedule: Q03HX032 (ip), vehicle: other) was 156 % of control and 167 % of control, the T/C (dose: 14.0 mg/kg/injection, schedule: Q01DX009 (ip), vehicle: steriod suspending solution) was 108 % of control and the T/C (dose: 18.7 mg/kg/injection, schedule: Q03HX032 (ip), vehicle: other) was 214 % of control and 216 % of control. The T/C (dose: 23.0 mg/kg/injection, schedule: Q01DX009 (ip), vehicle: steriod suspending solution) was 119 % of control, the T/C (dose: 25.0 mg/kg/injection, schedule: Q01DX009 (oral), vehicle: steriod suspending solution) was 116 % of control and the T/C (dose: 25.0 mg/kg/injection, schedule: Q01DX Z (ip), vehicle: steriod suspending solution) was 150 % of control. For the same molecule, the T/C (dose: 25.0 mg/kg/injection, schedule: Q03HX024 (ip), vehicle: steriod suspending solution) was 153 % of control, the T/C (dose: 39.0 mg/kg/injection, schedule: Q01DX001 (ip), vehicle: steriod suspending solution) was 109 % of control and the T/C (dose: 39.0 mg/kg/injection, schedule: Q01DX009 (ip), vehicle: steriod suspending solution) was 152 % of control. The T/C (dose: 50.0 mg/kg/injection, schedule: Q01DX001 (ip), vehicle: steriod suspending solution) was 107 % of control, the T/C (dose: 50.0 mg/kg/injection, schedule: Q01DX009 (ip), vehicle: steriod suspending solution) was 212 % of control and the T/C (dose: 50.0 mg/kg/injection, schedule: Q01DX009 (oral), vehicle: steriod suspending solution) was 113 % of control. For the same molecule, the T/C (dose: 50.0 mg/kg/injection, schedule: Q01DX009 (sc), vehicle: steriod suspending solution) was 154 % of control, the T/C (dose: 50.0 mg/kg/injection, schedule: Q01DX Z (ip), vehicle: steriod suspending solution) was 164 % of control and the T/C (dose: 50.0 mg/kg/injection, schedule: Q03HX008 (ip), vehicle: steriod suspending solution) was 164 % of control. For the same molecule, the T/C (dose: 50.0 mg/kg/injection, schedule: Q03HX024 (ip), vehicle: steriod suspending solution) was 165 % of control, the T/C (dose: 65.0 mg/kg/injection, schedule: Q01DX001 (ip), vehicle: steriod suspending solution) was 118 % of control and the T/C (dose: 65.0 mg/kg/injection, schedule: Q01DX009 (ip), vehicle: steriod suspending solution) was 176 % of control. For the same molecule, the T/C (dose: 100.0 mg/kg/injection, schedule: Q01DX001 (ip), vehicle: steriod suspending solution) was 112 % of control, the T/C (dose: 100.0 mg/kg/injection, schedule: Q01DX009 (oral), vehicle: steriod suspending solution) was 121 % of control and the T/C (dose: 100.0 mg/kg/injection, schedule: Q04DX003 (ip), vehicle: steriod suspending solution) was 154 % of control. For the same molecule, the T/C (dose: 200.0 mg/kg/injection, schedule: Q01DX001 (ip), vehicle: steriod suspending solution) was 166 % of control, the T/C (dose: 200.0 mg/kg/injection, schedule: Q04DX003 (ip), vehicle: steriod suspending solution) was 189 % of control and the T/C (dose: 400.0 mg/kg/injection, schedule: Q01DX001 (ip), vehicle: steriod suspending solution) was 119 % of control. The T/C (dose: 400.0 mg/kg/injection, schedule: Q04DX003 (ip), vehicle: steriod suspending solution) was 162 % of control.

Nc1ccccc1SC(CC(=O)c1ccccc1)c1cccc([N+](=O)[O-])c1 (configuration not stated) was tested, and the T/C (dose: 100.0 mg/kg/injection, schedule: Q01DX005 (ip), vehicle: Klucel (hydroxypropylcellulose) (HPC)) was 112 % of control, the T/C (dose: 100.0 mg/kg/injection, schedule: Q04DX002 (ip), vehicle: Klucel (hydroxypropylcellulose) (HPC)) was 95 % of control and the T/C (dose: 200.0 mg/kg/injection, schedule: Q01DX005 (ip), vehicle: Klucel (hydroxypropylcellulose) (HPC)) was 105 % of control. The T/C (dose: 200.0 mg/kg/injection, schedule: Q01DX009 (ip), vehicle: Klucel (hydroxypropylcellulose) (HPC)) was 87 % of control, the T/C (dose: 200.0 mg/kg/injection, schedule: Q04DX002 (ip), vehicle: Klucel (hydroxypropylcellulose) (HPC)) was 110 % of control and the T/C (dose: 400.0 mg/kg/injection, schedule: Q01DX005 (ip), vehicle: Klucel (hydroxypropylcellulose) (HPC)) was 91 % of control. The T/C (dose: 400.0 mg/kg/injection, schedule: Q04DX002 (ip), vehicle: Klucel (hydroxypropylcellulose) (HPC)) was 89 % of control.

For O=C(CCl)NCc1cnccn1, the T/C (dose: 50.0 mg/kg/injection, schedule: Q01DX009 (ip), vehicle: saline) was 95 % of control, the T/C (dose: 100.0 mg/kg/injection, schedule: Q01DX009 (ip), vehicle: saline) was 107 % of control and the T/C (dose: 100.0 mg/kg/injection, schedule: Q04DX003 (ip), vehicle: saline) was 98 % of control. For the same molecule, the T/C (dose: 200.0 mg/kg/injection, schedule: Q04DX003 (ip), vehicle: saline) was 104 % of control.

Reference: PubChem BioAssay AID248 (DTP/NCI, 2004)
